Each structure is given as a SMILES string.

The target of the first assay is T1, intermediate conductance, calcium activated potassium channel (Gardos channel) in red blood cells (Homo sapiens, UniProt O15554).
T1 construct: endogenous in cells; host or cells: red blood cells from heparinized whole blood
The assay is described as follows: 86Rb flux assay for inhibition of the Gardos channel in red blood cells (Example 4). To be noted: CaCl2 and A23187. The class given is cell-based. On the procedure: Activities for selected compounds of the invention were determined using the assay set forth in Example 4, and are presented in Table 1.
Example 4 illustrates the use of a rubidium flux assay to determine the activity of the compounds of the invention.
Example 4 describes a bioassay for measuring the inhibition of a calcium activated potassium channel, the Gardos channel, in red blood cells by the compounds of the invention.
Heparinized whole blood was washed three times with Modified Flux Buffer (MFB: 140 mM NaCl; 5 mM KCl; 10 mM Tris; 0.1 mM EGTA; pH=7.4). Red blood cells (“RBCs”) at an approximate 10% hematocrit. Washed cells were then incubated for 3 hours with ^86Rb (5 μCi/mL). After this incubation period, the RBCs were washed three times with cold MFB. Washed ^86Rb loaded RBCs were then incubated with a test compound of the invention for 10 minutes. ^86Rb flux was then initiated by the addition of 10 μL/mL of a MFB solution containing 10 mM CaCl2 and 100 μM A23187, a calcium ionophore. This yielded a final concentration of 100 μM CaCl2 and […] A23187 n the incubation medium. Cells were incubated for 10 minutes, spun down and the supernatant was removed. Samples were counted in a Wallace Microbeta liquid scintillation counter by Cerenkov emission. Total RBC ^86Rb content was determined by lysing the RBCs with water and then precipitating protein using a 50:50 mixture of ethanol:chloroform. After a 20 minute microfuge spin, the aqueous and organic layers separated and the aqueous layer was removed and counted. Efflux is expressed as a percentage of the initial cell content of ^86Rb.
Turning to `COC(=O)C1=C(NS(=O)(=O)c2cccc(C(F)(F)F)c2)CCCC1` [Compound 31, 2-(3-trifluoromethyl-benzenesulfonylamino)-cyclohex-1-enecarboxylic Acid Methyl Ester], the “Activity (relative potencies in the intermediate conductance, calcium activated potassium channel blocker assay, IC50 class)” value is given as “++ (++ represents 2 μM < IC50 < 0.5 μM)”. With `O=S(=O)(Nc1ccccc1-c1ncco1)c1cccc(C(F)(F)F)c1` [Compound 74, N-(2-Oxazol-2-yl-phenyl)-3-trifluoromethyl-benzenesulfonamide], the “Activity (relative potencies in the intermediate conductance, calcium activated potassium channel blocker assay, IC50 class)” value was “++ (++ represents 2 μM < IC50 < 0.5 μM)”. The same measure, in the same setting: then `Cc1noc(-c2ccccc2NS(=O)(=O)c2cccc(C(F)(F)F)c2)n1` [Compound 82, N-[2-(3-methyl-[1,2,4]oxadiazol-5-yl)-phenyl]-3-trifluoromethyl-benzenesulfonamide], with “++ (++ represents 2 μM < IC50 < 0.5 μM)”. Take `COc1noc(-c2ccccc2NS(=O)(=O)c2cccc(C(F)(F)F)c2)n1` [Compound 83, N-[2-(3-methoxy-[1,2,4]oxadiazol-5-yl)-phenyl]-3-trifluoromethyl-benzenesulfonamide]: the “Activity (relative potencies in the intermediate conductance, calcium activated potassium channel blocker assay, IC50 class)” value is on record as “++ (++ represents 2 μM < IC50 < 0.5 μM)”. The same measure, in the same setting: next, `COC(=O)c1ccccc1CS(=O)(=O)c1cccc(C(F)(F)F)c1` [Compound 95, 2-(3-Trifluoromethyl-benzenesulfonylmethyl)-benzoic Acid Methyl Ester]: “++ (++ represents 2 μM < IC50 < 0.5 μM)”; `COC(=O)c1ccccc1CSc1cccc(C(F)(F)F)c1` [Compound 96, 2-(3-Trifluoromethyl-phenylsulfanylmethyl)-benzoic Acid Methyl Ester]: “+ (+ Represents 10 μM < IC50 < 2 μM)”.

Still in this assay, the particulars now being: CaCl2 and A23187, read-out: Activity (relative potencies in the intermediate conductance, calcium activated potassium channel blocker assay, IC50 class).
In general, IC50 refers to the concentration that gives 50% inhibition. Take `COc1ccc(NS(=O)(=O)c2cccc(C(F)(F)F)c2)c(-c2ncco2)c1` [Compound 40, N-(4-Methoxy-2-oxazol-2-yl-phenyl)-3-trifluoromethyl-benzenesulfonamide]: the IC50 was less than 500 nM. Same read-out and setting: next, `COc1cc(NS(=O)(=O)c2cccc(C(F)(F)F)c2)c(-c2nc(C)no2)cc1OC` [Compound 41, N-[4,5-dimethoxy-2-(3-methyl-[1,2,4]oxadiazol-5-yl)-phenyl]-3-trifluoromethyl-benzenesulfonamide]: less than 500 nM; `O=S(=O)(Nc1ccccc1-c1ccco1)c1cccc(C(F)(F)F)c1` [Compound 76, N-(2-furan-2-yl-phenyl)-3-trifluoromethyl-benzenesulfonamide]: less than 500 nM.

The values above are taken from patent US20060094721A9, “Sulfonamides as potassium channel blockers” (Icagen, Inc., priority 2002, published 2006).
